Test: Screening of different concentrations of the chelating agent GLDA (peracetic acid concentration over storage)
Type: physicochemical

## O=C([O-])CC[C@@H](C(=O)[O-])N(CC(=O)[O-])CC(=O)[O-].[Na+].[Na+].[Na+].[Na+] [GLDA, N,N-bis(carboxymethyl)-L-glutamic acid tetrasodium salt]
0.05 wt.-% GLDA in component (B), day 0, 23° C.
  peracetic acid concentration of the aqueous disinfectant solution: 2314 ppm
0.05 wt.-% GLDA in component (B), day 1, 23° C.
  peracetic acid concentration of the aqueous disinfectant solution: 2220 ppm
0.05 wt.-% GLDA in component (B), day 4, 23° C.
  peracetic acid concentration of the aqueous disinfectant solution: 1847 ppm
0.05 wt.-% GLDA in component (B), day 6, 23° C.
  peracetic acid concentration of the aqueous disinfectant solution: 1753 ppm
0.05 wt.-% GLDA in component (B), day 7, 23° C.
  peracetic acid concentration of the aqueous disinfectant solution: 1653 ppm
0.05 wt.-% GLDA in component (B), day 8, 23° C.
  peracetic acid concentration of the aqueous disinfectant solution: 1563 ppm
0.05 wt.-% GLDA in component (B), day 9, 23° C.
  peracetic acid concentration of the aqueous disinfectant solution: 1466 ppm
0.05 wt.-% GLDA in component (B), day 15, 23° C.
  peracetic acid concentration of the aqueous disinfectant solution: 829 ppm
0.1 wt.-% GLDA in component (B), day 0, 23° C.
  peracetic acid concentration of the aqueous disinfectant solution: 2346 ppm
0.1 wt.-% GLDA in component (B), day 1, 23° C.
  peracetic acid concentration of the aqueous disinfectant solution: 2202 ppm
0.1 wt.-% GLDA in component (B), day 4, 23° C.
  peracetic acid concentration of the aqueous disinfectant solution: 1856 ppm
0.1 wt.-% GLDA in component (B), day 6, 23° C.
  peracetic acid concentration of the aqueous disinfectant solution: 1793 ppm
0.1 wt.-% GLDA in component (B), day 7, 23° C.
  peracetic acid concentration of the aqueous disinfectant solution: 1682 ppm
0.1 wt.-% GLDA in component (B), day 8, 23° C.
  peracetic acid concentration of the aqueous disinfectant solution: 1636 ppm
0.1 wt.-% GLDA in component (B), day 9, 23° C.
  peracetic acid concentration of the aqueous disinfectant solution: 1566 ppm
0.1 wt.-% GLDA in component (B), day 15, 23° C.
  peracetic acid concentration of the aqueous disinfectant solution: 1075 ppm
0.1 wt.-% GLDA in the stabilizer component (B)
  stabilisation of peracetic acid, comparison of GLDA concentrations: best stabilisation
0.5 wt.-% GLDA in component (B), day 0, 23° C.
  peracetic acid concentration of the aqueous disinfectant solution: 2408 ppm
0.5 wt.-% GLDA in component (B), day 1, 23° C.
  peracetic acid concentration of the aqueous disinfectant solution: 2113 ppm
0.5 wt.-% GLDA in component (B), day 4, 23° C.
  peracetic acid concentration of the aqueous disinfectant solution: 1821 ppm
0.5 wt.-% GLDA in component (B), day 6, 23° C.
  peracetic acid concentration of the aqueous disinfectant solution: 1718 ppm
0.5 wt.-% GLDA in component (B), day 7, 23° C.
  peracetic acid concentration of the aqueous disinfectant solution: 1682 ppm
0.5 wt.-% GLDA in component (B), day 8, 23° C.
  peracetic acid concentration of the aqueous disinfectant solution: 1625 ppm
0.5 wt.-% GLDA in component (B), day 9, 23° C.
  peracetic acid concentration of the aqueous disinfectant solution: 1512 ppm
0.5 wt.-% GLDA in component (B), day 15, 23° C.
  peracetic acid concentration of the aqueous disinfectant solution: 1016 ppm
Component (B) comprised 0.05 wt.-%, 0.1 wt.-% or 0.5 wt.-% GLDA
  shelf life of the aqueous disinfectant use solution: about 14 days
